Data: patent US7662565B2, “Approaches to identify less harmful tobacco and tobacco products” (Vector Tobacco, Inc., priority 2004, dated 2010)
Like-named read-outs stand apart in the source and are kept apart here.

Tests used:
tobacco leaf disks = experiment: Norflurazone resistance of tobacco leaf disks transformed with PDSM genes; settings: Agrobacterium transformation of tobacco leaf disks; various norflurazone concentrations
Procedure: Other aspects of the invention concern the discovery of several mutants of the phytoene desaturase gene that confer resistance to the herbicide norflurazone (e.g., SEQ. ID. Nos.10, 11, and 12). These herbicide resistance genes were used as selectable markers in the transformations above. Typically, the selection was accomplished by introducing the transformed plant tissue to the norflurazone (e.g., 0.005 uM-0.1 uM conc.). That is, the concentration of norflurazone that can be used to select positive transformants containing a norflurazone resistance gene, as described herein can be at least, less than, greater than, or equal to 0.005, 0.006, 0.007, 0.008, 0.009, 0.01, 0.02, 0.03, 0.04, 0.05, 0.06, 0.07, 0.08, 0.09, 0.1, 0.2, 0.3, 0.4, 0.5, 0.6, 0.7, 0.8, 0.9, or 1.0 uM. Preferably, less than or equal to 0.05 uM concentration of norflurazone is used when selecting transformants with Flue-cured tobacco and less than or equal to 0.0125 uM concentration norflurazone is used when selecting transformants with Burley tobacco. As the plantlet develops, selection was accomplished by differentiating the green shoots (positive transformants) from the yellow or white shoots (negative transformants). Once selection was made, the herbicide was removed and the plantlet was allowed to develop in the greenhouse.
The norflurazone resistant phytoene desaturase mutants (PDSM-1, PDSM-2, and PDSM-3) were generated by site-directed mutagenesis of particular regions of the gene believed to be involved in binding of the herbicide. Constructs carrying the various PDSM genes were then transferred to tobacco leaf disks by conventional Agrobacterium transformation and the resistance to norflurazone was analyzed at various concentrations. After several iterations, the mutants described as SEQ. ID. […] Accordingly, aspects of the invention concern the PDSM genes described herein, their use in plants as selectable markers to identify plant cells that contain a transformed gene, whether in tissue culture or in the field, and methods of identifying new PDSM genes that confer norflurazone resistance.

A549 cells [1] = experiment: γH2AX DNA damage assay, A549 cells exposed to whole smoke or vapor phase of smoke (Example 2); format: cell-based, human; settings: for suppression of DNA damage (γH2AX): 25 mM NAC present during exposure; for effect of NAC on DNA damage: 25 mM NAC during exposure (FIG. 10); for IC50: Homo sapiens, from graph FIG. 11, read-out: concentration of NAC that reduced DNA damage by 50%
NHBE cells = experiment: γH2AX DNA damage assay, NHBE cells exposed to whole smoke or vapor phase of smoke (Example 2); format: cell-based, human
Text: In order to compare DNA damage as a function of the cell's position in the cell cycle, γH2AX values were normalized to DNA content since histone content doubles as cells proceed from G1 to G2 phase. Thus, in order to determine any change in histone H2AX phosphorylation independent of changes in histone/DNA content or DNA ploidy, the values for S and G2M phase populations, gated according to DNA content, were multiplied by 0.75 and 0.5, respectively. In instances where “normalized” values of γH2AX are presented, these values were obtained by subtracting the mean values of each cell cycle population (or the total population) from the mean of the mock-treated population whose γH2AX values represent “scheduled” γH2AX expression. In all instances, the values presented represent the mean γH2AX fluorescence of the population; typically 3-5×10^3 cells were analyzed for each condition.
The response of NHBE cells to whole smoke from IM 16 cigarettes was more or less identical to that observed for A549 cells (FIG. 7C). The one difference between the two cell lines was that S phase cells in NHBE cultures always expressed higher “scheduled” amounts of γH2AX.
In the next series of experiments, it was determined that DNA damage caused by whole smoke can be mitigated by the presence of NAC. Using a standardized set of conditions (20 min of exposure followed by a 1 h recovery), DNA damage caused by whole smoke from IM 16 cigarettes was assayed in both A549 and NHBE cells. NAC at a concentration of 25 mM was either absent or present during exposure and absent or present during the 1 h recovery time. In this instance, the background or “scheduled” γH2AX expression observed in Mock-treated cells was subtracted from each measurement. The remaining fluorescence should be indicative of the level of DNA DSBs under each set of conditions.
The vapor phase from IM 16 CS cause only about 30% (29.7%) of the damage caused by whole smoke whereas the vapor phase of smoke from Quest 1® caused 97% less damage than whole smoke from IM 16 cigarettes.

A549 cells [2] = experiment: Clonogenic survival assay (Example 3); format: cell-based
Procedure: A clonogenic survival assay was used to study the ability of tobaccos and tobacco products to impact the proliferation of cells. The experiment involves four major steps: (1) inoculate cells into culture dishes and incubate for 24-48 hours; (2) upon reaching the logarithmic phase of growth, the treatment is applied; the treatment in this case is freshly prepared and diluted CS for increasing periods of time; (3) the cells are then allowed to recover for a set number of hours (up to 24), then the cells are trypsinized, replated at specific dilutions, and allowed to continue growing for 5-7 days; the number of cells used depends largely on the plating efficiency of the cell line and must be determined empirically prior to the experiment; and (4) at the conclusion of the experiment, the cells are fixed, stained, and counted. The primary measure is to count surviving colonies of 25-50 cells which is presented as the percentage of cells which survived the treatment. A graphical representation of survival versus exposure time to CS is then generated. The surviving fraction is determined by dividing the number of colonies in the dish by the number of the colonies in the control (non-treated) dish.
A549 cells were exposed to smoke as previously described (see above). Following smoke exposure the medium is aspirated and the cells rinsed refed with 37° C. BEGM and placed in a 37° C., 5% CO2 humidified incubator for two to three hours. The cells are harvested by trypsinization with trypsin-EDTA (0.25% trypsin-0.38 mg/ml EDTA, Invitrogen). Cells are centrifuged at 260×g for 8 min. Cell pellets are resuspended in 1 ml of Ham's F-12K medium, 10% FBS (complete medium) per pellet and counted. Cells are serially diluted so that the mock treated have ˜65 cells per well and smoke treated have ˜300 cells per well when seeded onto 96-well flat bottom tissue culture plates; one plate per condition. The plates are incubated for five days in a 37° C., 5% CO2 humidified incubator. The colonies of cells are fixed with 5% formaldehyde/PBS and colored with 0.8% crystal violet solution for visualization. The colonies are counted with the aid of a macroscopic dissecting microscope. The cloning efficiency results are expressed in relation to the mock exposed cells. Unless otherwise indicated, each bar in the graphs represents three replicate data points per experiment.
In yet another series of experiments, the effect of NAC on cell death caused by the VAPOR phase of smoke from different cigarettes was evaluated. A549 cells were exposed to the vapor phase of smoke for 20 min by inserting a Cambridge filter pad immediately after the cigarette in the smoking apparatus so as to filter out the particulate matter (“tar”) and leave only the vapor phase. […]

With “PDSM-1: Arabidopsis phytoene desaturase mutant gene, T to G at position 1478 (Valine to Glycine at residue 493)” the resistance to norflurazone (tobacco leaf disks) was “confer resistance to norflurazone”.
In the case of “PDSM-3: Arabidopsis phytoene desaturase mutant gene, T to C at position 1226 (Leucine to Proline at residue 409)”, the resistance to norflurazone (tobacco leaf disks) is reported as “confer resistance to norflurazone”.
For “PDSM-2: Arabidopsis phytoene desaturase mutant gene, G to C at position 863 (Arginine to Proline at residue 288)”, the resistance to norflurazone (tobacco leaf disks) was “confer resistance to norflurazone”.
`CC(=O)N[C@@H](CS)C(=O)O` [NAC, N-acetyl-L-cysteine] was tested, and the “effect of NAC on vapor phase damage” value (A549 cells [1]; A549, each cell cycle phase, vapor phase from Quest 1 and Quest 3) was “reduced damage to background levels”, the “suppression of DNA damage (γH2AX)” value (A549 cells [1]; A549, entire population, IM 16 whole smoke 20 min, 1 h recovery) was “greater than 80%” and the “suppression of γH2AX” value (A549 cells [1]; A549, entire population, IM 16 whole smoke, 25 mM NAC during exposure and during 1 h recovery) was 90%. For the same compound, the “mitigation of DNA damage” value (A549 cells [1]; A549, IM 16 whole smoke, 25 mM NAC applied to the media following exposure only) was “did nothing to mitigate the DNA damage”, the “effect of NAC on DNA damage” value (A549 cells [1]; A549, smoke from IM 16) was “dramatically reduced the effects of smoke” and the “effect of NAC on DNA damage” value (A549 cells [1]; A549, smoke from Omni) was “reduced the damage to near background levels”. The “effect of NAC on DNA damage” value (A549 cells [1]; A549, smoke from Quest 3) was “reduced to background levels”, the “reduction of γH2AX by NAC” value (A549 cells [1]; A549, vapor phase of smoke from IM 16, NAC during exposure) was 93.2% and the “reduction of γH2AX by NAC” value (A549 cells [1]; A549, vapor phase of smoke from Quest 1, NAC during exposure) was 98.9%. The “reduction of γH2AX by NAC” value (A549 cells [1]; A549, vapor phase of smoke from Quest 3, NAC during exposure) was 100%, the “reduction of γH2AX by NAC” value (A549 cells [1]; A549, whole smoke from IM 16, 25 mM NAC during exposure) was 89.1% and the “suppression of DNA damage (γH2AX)” value (A549 cells [1]; A549 G1 cells, IM 16 whole smoke) was 91%. The “reduction of damage by NAC” value (A549 cells [1]; A549 G1 phase, vapor phase of smoke from IM 16) was 98.5%, the “suppression of DNA damage (γH2AX)” value (A549 cells [1]; A549 G2M cells, IM 16 whole smoke) was 88% and the “reduction of damage by NAC” value (A549 cells [1]; A549 G2M phase, vapor phase of smoke from IM 16) was 92.2%. The “suppression of DNA damage (γH2AX)” value (A549 cells [1]; A549 S phase cells, IM 16 whole smoke) was 82%, the “reduction of damage by NAC” value (A549 cells [1]; A549 S phase, vapor phase of smoke from IM 16) was 89.0% and the “concentration dependence of NAC protection” value (A549 cells [1]; G1 and G2M A549 cells, IM 16 whole smoke 20 min, 1 h recovery) was “began to decrease when as little as 1 mM NAC was present”. The IC50 (A549 cells [1]; A549, G1 phase A549 cells, IM 16 whole smoke) was roughly 4.5 mM, the IC50 (A549 cells [1]; A549, G2M phase A549 cells, IM 16 whole smoke) was roughly 7.5 mM and the IC50 (A549 cells [1]; A549, S phase A549 cells, IM 16 whole smoke) was roughly 2.6 mM. For the same compound, the “concentration dependence of NAC protection” value (A549 cells [1]; S phase A549 cells, IM 16 whole smoke 20 min, 1 h recovery) was “unaffected by the presence of NAC up to a concentration of 5 mM”, the “decrease of DNA damage by NAC” value (NHBE cells; NHBE G1 cells, IM 16 whole smoke, 25 mM NAC present during exposure) was roughly 69% and the “decrease of DNA damage by NAC” value (NHBE cells; NHBE G2M cells, IM 16 whole smoke, 25 mM NAC present during exposure) was “about 65%”. The “protection by NAC” value (NHBE cells; NHBE S phase cells, IM 16 whole smoke, 25 mM NAC present during exposure) was “afforded no protection”, the “protection by NAC” value (NHBE cells; NHBE, IM 16 whole smoke, 25 mM NAC during exposure and recovery) was “small degree of additional protection” and the “effect of NAC on level of DNA damage” value (NHBE cells; NHBE, IM 16 whole smoke, 25 mM NAC only during recovery) was “little effect on the level of DNA damage”. The “effect of NAC on vapor phase DNA damage” value (NHBE cells; NHBE, vapor phase of IM 16, Quest 1 or Quest 3) was “abolished virtually all DNA damage”, the “effect of NAC on vapor phase damage” value (NHBE cells; NHBE, vapor phase of smoke from IM 16 (FIG. 13)) was “to background levels or below” and the “effect of NAC on vapor phase damage” value (NHBE cells; NHBE, vapor phase of smoke from Quest cigarettes) was “inhibited”. For the same compound, the “reduction of γH2AX by NAC” value (NHBE cells; NHBE, whole smoke from IM 16, NAC during exposure) was 77.9%, the “protection of cell viability by NAC” value (A549 cells [2]; 20 min IM16 smoke, various concentrations of NAC (FIG. 16)) was “protected the viability of the cells in a dose-dependent manner” and the “protection of cell viability by NAC” value (A549 cells [2]; 20 min Omni or IM16 smoke, 25 mM NAC) was “partially protected”. For the same compound, the “protection of cell viability by NAC” value (A549 cells [2]; 20 min Quest 3 smoke, 25 mM NAC) was “completely protected” and the “protection of cell viability by NAC” value (A549 cells [2]; all vapor phase exposures, 25 mM NAC) was “protected the cells against viability loss”.
